Data on three molecules can be found in article PMC8733726, “Dioctanoyl Ultrashort Tetrabasic β-Peptides Sensitize Multidrug-Resistant Gram-Negative Bacteria to Novobiocin and Rifampicin” (Frontiers in Microbiology, 2021).

Values after ≈ are worked out from the molar mass of the structure shown. Where two headings read alike, the source gives them in different places.

Series [1] relates to MDR clinical isolates of P. aeruginosa. Briefly: Checkerboard assay, MDR clinical isolates. Type of series: cell-based, Pseudomonas aeruginosa. Conditions: antibiotic alone. As for the experimental part: (§1) The adjuvant activities of dUSTBβPs were evaluated using checkerboard assay as previously described ([Berry et al., 2019]). Overnight-grown bacterial culture diluted in saline to 0.5 McFarland turbidity was successively diluted 1:50 in MHB to achieve a final concentration of 5 × 10^5 CFU/mL for inoculation. The antibiotic and adjuvant were serially diluted 2-fold along the x-axis and y-axis, respectively, resulting in varying concentrations of both agents in each well. Subsequently, the 96-well plate was incubated with equal volumes of bacterial inoculum at 37°C for 18 h. Confirmation of turbidity was done using an EMax Plus microplate reader (Molecular Devices, United States) at a wavelength of 590 nm. Wells comprising MHB alone or in the presence of bacterial cells were used as negative or positive controls, respectively. Fractional inhibitory concentration index (FICI) is determined by adding the FICs of both antibiotic and adjuvant. The FIC of the antibiotic is calculated by dividing the MIC of the antibiotic in the presence of the adjuvant by the MIC of the antibiotic alone. Similarly, the FIC of the adjuvant is calculated by dividing the MIC of the adjuvant in the presence of the antibiotic by the MIC of the adjuvant alone. FICI ≤ 0.5, 0.5 < x ≤ 4, and >4 were deemed synergistic, additive, and antagonistic, respectively ([Meletiadis et al., 2010]).

The subject of another series is MDR E. coli. Type of series: cell-based, Escherichia coli. To be noted: 94393; antibiotic alone. As for the experimental part:
as §1

The test system of series [2] is wild-type E. coli ATCC 25922. Put plainly: microbe, parasite or virus in culture. It is filed as cell-based, Escherichia coli. Conditions: ATCC 25922; for MICcombo: antibiotic with dUSTBβP 3 at 8 μg/mL. The method in brief: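 Antibiotic and adjuvant were serially diluted 2-fold against each other in MHB, inoculated at 5 × 10^5 CFU/mL and incubated at 37°C for 18 h. Growth was read as turbidity at 590 nm. FICI was the sum of each agent's combination MIC divided by its MIC alone; ≤ 0.5 counted as synergy.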

Another series has as its system MDR K. pneumoniae. Type of series: cell-based, Klebsiella pneumoniae. To be noted: antibiotic alone. As for the experimental part: as §1
The test system of series [3] is MDR clinical isolates of A. baumannii. It is filed as cell-based, Acinetobacter baumannii. Conditions: antibiotic alone. The procedure:
as §1

The conditions of series [4]: in vivo; cited from earlier work.
A further series relates to MDR E. cloacae. Put plainly: Checkerboard assay, MDR clinical isolates. To be noted: antibiotic alone. Type of series: cell-based, Enterobacter cloacae. The procedure:
as §1

Series [5] deals with wild-type P. aeruginosa PAO1. Briefly: microbe, parasite or virus in culture. It is filed as cell-based, Pseudomonas aeruginosa. To be noted: PAO1; for MICcombo: antibiotic with dUSTBβP 3 at 8 μg/mL. The essentials: (§2)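 Checkerboard in MHB with 5 × 10^5 CFU/mL inoculum, antibiotic and adjuvant each serially 2-fold diluted on crossed axes. Growth read as turbidity at 590 nm; FICI is the sum of each agent's MIC in combination divided by its MIC alone.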

Series [6] relates to wild-type A. baumannii ATCC 17978. Put plainly: Checkerboard assay. To be noted: ATCC 17978; for MICcombo: antibiotic with dUSTBβP 3 at 8 μg/mL. It is filed as cell-based, Acinetobacter baumannii. The method in brief:
as §2

The subject of another series is MDR A. baumannii 110193. Put plainly: Time-kill assay. Type of series: cell-based, Acinetobacter baumannii. Conditions: 32 μg/mL novobiocin or 0.5 μg/mL rifampicin alone. The procedure: (§3) Overnight-grown bacterial culture diluted in PBS to 0.5 McFarland turbidity was successively diluted 1:50 in lysogeny broth (LB). Cell cultures in the presence of dUSTBβP 3, novobiocin, or rifampicin, or combinations of adjuvant and antibiotic were incubated at 37°C. At designated intervals, 100 μL aliquots acquired from each culture tube were serially diluted in PBS and plated on LB agar plates.

The subject of series [7] is wild-type A. baumannii ATCC 17978. Briefly: Time-kill assay. Conditions: 32 μg/mL novobiocin or 0.5 μg/mL rifampicin alone. It is filed as cell-based, Acinetobacter baumannii. The procedure: as §3
Series [8] relates to MDR K. pneumoniae clinical isolates. Put plainly: Resistance phenotype (MICs of antibiotics) of MDR clinical isolates. Type of series: cell-based, Klebsiella pneumoniae.
In series [9] the test system is MDR E. coli clinical isolates. The series is described as above. Type of series: cell-based, Escherichia coli.
The conditions of series [10]: cited from earlier work.
Series [11] concerns MDR A. baumannii clinical isolates. Put plainly: Resistance phenotype (MICs of antibiotics) of MDR clinical isolates. Type of series: cell-based, Acinetobacter baumannii.
Series [12] deals with MDR E. cloacae clinical isolates. The description is as above. It is filed as cell-based, Enterobacter cloacae.
Series [13] relates to MDR P. aeruginosa clinical isolates. Described as above. Type of series: cell-based, Pseudomonas aeruginosa.
The mark [14] stands for this setting: antibiotic alone (Supplementary Table 7).

Consider `CO[C@@H]1[C@@H](OC(N)=O)[C@@H](O)[C@H](Oc2ccc3c(O)c(NC(=O)c4ccc(O)c(CC=C(C)C)c4)c(=O)oc3c2C)OC1(C)C` [Novobiocin], for which the MICantibiotic in series [1] (PA259-96196) is 1024 µg/mL; in series [1] (PA259-96196, listed as novobiocin), 1,024 μg/mL; in series [1] (PA262-101856), 1024 µg/mL; in [1] (PA262-101856, listed as novobiocin), 1,024 μg/mL; in [1] (PA264-104354) it was 1024 µg/mL; in [1] (PA264-104354, listed as novobiocin) it was 1,024 μg/mL. Besides, the MICantibiotic in [1] (PA91433) is 1024 µg/mL; in series [1] (PA91433, listed as novobiocin), 1,024 μg/mL; in series [1] (PA114228) it was 1024 µg/mL; in [1] (PA114228, listed as novobiocin), 1,024 μg/mL; in the series with MDR E. coli it was 64 µg/mL; in series [2] (antibiotic alone), 64 µg/mL. Moreover, the MICantibiotic in the series with MDR K. pneumoniae (113250) was found to be 128 µg/mL; with MDR K. pneumoniae (113254), 256 µg/mL; in the series with MDR K. pneumoniae (116381), 256 µg/mL; in series [3] (92247) it was 4 µg/mL; in series [3] (110193), 128 µg/mL; in [3] (AB027), 8 µg/mL. Further, the MICantibiotic in series [3] (AB031) is 4 µg/mL; in series [3] (LAC-4) it was over 0.5 µg/mL; in [3] (LAC-4, listed as novobiocin) it was 1 µg/mL; in the series on MDR E. cloacae (117029) it was 512 µg/mL; with MDR E. cloacae (118564), 256 µg/mL; in the series on MDR E. cloacae (121187), 16 µg/mL. The MICantibiotic in [5] (antibiotic alone) is 1,024 μg/mL; in series [6] (antibiotic alone), 16 µg/mL. The values for the MICcombo in series [2], in [5] and in [6] were 0.125 µg/mL, 32 µg/mL and 0.25 µg/mL, respectively. The MIC in series [2] (Escherichia coli, ATCC25922, 18 h, antibiotic alone (Supplementary Table 7), read-out: MICantibiotic) stood at 64 µg/mL; in [5] (Pseudomonas aeruginosa, 18 h, antibiotic alone (Supplementary Table 7), read-out: MICantibiotic) it was 1020 µg/mL (≈ 1670 µM); in series [6] (Acinetobacter baumannii, ATCC17978, 18 h, antibiotic alone (Supplementary Table 7), read-out: MICantibiotic), 16 µg/mL. Moreover, the Steady-state serum concentration in series [4] is 5 µg/mL. Further, the Time-kill outcome (with MDR A. baumannii 110193; in series [7]) was “Bacteriostatic” in each case.
As to Colistin, the MICantibiotic is listed as 0.125 in series [2] (setting [14]), 1 in series [5] (setting [14]) and 0.5 in series [6] (setting [14]). Also, the values for the MICcombo in series [2], in [5] and in series [6] were 0.031 µg/mL, 1 µg/mL and 0.25 µg/mL, respectively. The MIC was over 16 µg/mL in series [8] (113250); over 16 µg/mL in series [8] (113254); 1 µg/mL in series [8] (116381); 4 µg/mL in series [9] (94393 (mcr-1 +)); 16 µg/mL in [9] (94474 (mcr-1 +)); 0.125 µg/mL in series [9] (107115). The MIC turned out to be 4 µg/mL in series [11] (92247); 0.5 µg/mL in [11] (110193); 0.25 µg/mL in series [11] (AB027); 0.25 µg/mL in series [11] (AB031); 0.125 µg/mL in series [11] (LAC-4); 0.25 µg/mL in [12] (117029). Moreover, the MIC is over 16 µg/mL in series [12] (118564); over 16 µg/mL in series [12] (121187); 1 µg/mL in series [13] (259-96196); 1 µg/mL in series [13] (262-101856); 1 µg/mL in [13] (264-104354); 4 µg/mL in series [13] (91433). The MIC in series [13] (114228) came to 4 µg/mL. Besides, the “In vivo elimination half-life” value in series [10] (in vivo) is given as 5 h.
Turning to `CCCCCCCCCCNCCN[C@@]1(C)C[C@H](O[C@H]2[C@H](Oc3c4cc5cc3Oc3ccc(cc3Cl)[C@@H](O)[C@@H](NC(=O)[C@@H](CC(C)C)NC)C(=O)N[C@@H](CC(N)=O)C(=O)N[C@H]5C(=O)N[C@H]3C(=O)N[C@H](C(=O)N[C@H](C(=O)O)c5cc(O)c(CNCP(=O)(O)O)c(O)c5-c5cc3ccc5O)[C@H](O)c3ccc(c(Cl)c3)O4)O[C@H](CO)[C@@H](O)[C@@H]2O)O[C@@H](C)[C@H]1O` [telavancin], the “In vivo elimination half-life” value in series [10] (ref Chen and Lu, 2020) is on record as 8 h.
